# Measurements from ChEMBL document CHEMBL1201862, “PubChem BioAssay data set” (2004).
#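 Step 1: Grow cells in 96-well plates. Step 2: Expose to compound for 48 hours at 5 concentrations. Step 3: Interpolate endpoints linearly; if unreached, use highest concentration. GI50 = concentration required for 50% inhibition of growth.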 Calls of active or inactive are those of the source. Cut-off read from the data, not from the text of the source: active = GI50 up to about 1.1 µM and inactive = higher.
# How the values were obtained:
# Assay in all cases: DTP human tumour cell line panel, 48 h
# COLO 205 = system: COLO 205
# EKVX = system: EKVX
# HCC 2998 = system: HCC 2998
# HCT-116 = system: HCT-116
# HCT-15 = system: HCT-15
# HL-60 = system: HL-60
# K562 = system: K562
# NCI-H226 = system: NCI-H226
# NCI-H460 = system: NCI-H460
# OVCAR-3 = system: OVCAR-3
# OVCAR-5 = system: OVCAR-5
# SF-295 = system: SF-295
# SK-MEL-28 = system: SK-MEL-28
# SK-MEL-5 = system: SK-MEL-5
# SN12C = system: SN12C
# TK-10 = system: TK-10
# UACC-257 = system: UACC-257
# Malme-3M = system: Malme-3M
# OVCAR-8 = system: OVCAR-8
# A498 = system: A498
SMILES,GI50 (COLO 205),GI50 (EKVX),GI50 (HCC 2998),GI50 (HCT-116),GI50 (HCT-15) [µM],GI50 (HL-60),GI50 (K562),GI50 (NCI-H226),GI50 (NCI-H460),GI50 (OVCAR-3),GI50 (OVCAR-5),GI50 (SF-295),GI50 (SK-MEL-28),GI50 (SK-MEL-5),GI50 (SN12C),GI50 (TK-10),GI50 (UACC-257),GI50 (Malme-3M),GI50 (OVCAR-8),GI50 (A498)
COc1ccc(CCn2cncn2)cc1,> 100 µM (inactive),> 100 µM (inactive),> 100 µM (inactive),> 100 µM (inactive),> 100,> 100 µM (inactive),> 100 µM (inactive),> 100 µM (inactive),> 100 µM (inactive),> 100 µM (inactive),> 100 µM (inactive),> 100 µM (inactive),> 100 µM (inactive),> 100 µM (inactive),> 100 µM (inactive),> 100 µM (inactive),> 100 µM (inactive),–,–,–
CCN(CC)c1cccc2c1/C(=N/O)CCCC2,> 100 µM (inactive),> 100 µM (inactive),–,92.3 µM (inactive),> 100,> 100 µM (inactive),46.8 µM (inactive),> 100 µM (inactive),74.5 µM (inactive),–,–,83.8 µM (inactive),> 100 µM (inactive),70.8 µM (inactive),> 100 µM (inactive),> 100 µM (inactive),65 µM (inactive),> 100 µM (inactive),> 100 µM (inactive),–
CC(=O)OCc1c(C)c2ccccc2n1C(C)=O,44.2 µM (inactive),> 100 µM (inactive),95.3 µM (inactive),44.5 µM (inactive),–,23.9 µM (inactive),23.7 µM (inactive),87.5 µM (inactive),–,26.7 µM (inactive),> 100 µM (inactive),56.9 µM (inactive),> 100 µM (inactive),35.2 µM (inactive),35.7 µM (inactive),30.5 µM (inactive),30.3 µM (inactive),25 µM (inactive),49 µM (inactive),38.3 µM (inactive)
c1ccc(CNc2ncnc3nn[nH]c23)cc1,> 100 µM (inactive),> 100 µM (inactive),> 100 µM (inactive),> 100 µM (inactive),> 100,> 100 µM (inactive),> 100 µM (inactive),> 100 µM (inactive),–,> 100 µM (inactive),> 100 µM (inactive),> 100 µM (inactive),> 100 µM (inactive),> 100 µM (inactive),> 100 µM (inactive),> 100 µM (inactive),> 100 µM (inactive),> 100 µM (inactive),> 100 µM (inactive),34 µM (inactive)
C=C1C(=O)OC2CC1CCC1(C)OC1CCC(C)=CCCC2(C)O (centres undefined),1.89 µM (inactive),6.87 µM (inactive),7.01 µM (inactive),2.72 µM (inactive),1.85,0.927 µM (active),1.83 µM (inactive),3.61 µM (inactive),3.06 µM (inactive),3.33 µM (inactive),10 µM (inactive),16.8 µM (inactive),4.06 µM (inactive),4 µM (inactive),5.08 µM (inactive),–,4.78 µM (inactive),3.76 µM (inactive),2.33 µM (inactive),2.13 µM (inactive)
COc1cc2c(ccc3c4cc(OC)c(OC)cc4c[n+](C)c23)cc1O [FAGARONINE],15 µM (inactive),39.6 µM (inactive),34.4 µM (inactive),4.24 µM (inactive),> 73.3,48 µM (inactive),4.26 µM (inactive),1.47 µM (inactive),14.7 µM (inactive),4.72 µM (inactive),24 µM (inactive),7.93 µM (inactive),52.7 µM (inactive),4.09 µM (inactive),0.726 µM (active),–,> 67 µM (inactive),15.6 µM (inactive),1.69 µM (inactive),3.94 µM (inactive)
COC(=O)[C@H](Cc1ccccc1)NC(=O)N(CCNC(=O)OC(C)(C)C)c1ccccc1,> 100 µM (inactive),> 100 µM (inactive),> 100 µM (inactive),> 100 µM (inactive),> 100,> 100 µM (inactive),> 100 µM (inactive),> 100 µM (inactive),> 100 µM (inactive),> 100 µM (inactive),> 100 µM (inactive),> 100 µM (inactive),> 100 µM (inactive),> 100 µM (inactive),> 100 µM (inactive),–,–,> 100 µM (inactive),> 100 µM (inactive),> 100 µM (inactive)
Cn1cc(-c2csc(-c3cn(C)c4ccccc34)n2)c2ccccc21,> 100 µM (inactive),–,–,43.5 µM (inactive),> 100,> 100 µM (inactive),11.2 µM (inactive),32.2 µM (inactive),26.5 µM (inactive),23.5 µM (inactive),95.9 µM (inactive),23.4 µM (inactive),61.5 µM (inactive),26.9 µM (inactive),47.8 µM (inactive),27 µM (inactive),48.6 µM (inactive),19.1 µM (inactive),25.6 µM (inactive),12.6 µM (inactive)
O=C1C=CC(=O)c2c(Cl)ccc(O)c21,13.1 µM (inactive),21.8 µM (inactive),> 100 µM (inactive),9.79 µM (inactive),17.8,2.96 µM (inactive),3.48 µM (inactive),> 91.2 µM (inactive),> 65.9 µM (inactive),15.6 µM (inactive),> 54.1 µM (inactive),> 42.3 µM (inactive),18.8 µM (inactive),17.7 µM (inactive),21.1 µM (inactive),–,16.1 µM (inactive),18.7 µM (inactive),20.4 µM (inactive),> 87.9 µM (inactive)
O=C1c2ccccc2N(O)C1(c1ccccc1)C1CCCC=C1N1CCOCC1 (centres undefined),> 100 µM (inactive),34.7 µM (inactive),> 100 µM (inactive),28.5 µM (inactive),91.2,50.4 µM (inactive),39.8 µM (inactive),69.5 µM (inactive),> 100 µM (inactive),> 100 µM (inactive),> 100 µM (inactive),> 100 µM (inactive),83.8 µM (inactive),> 69.5 µM (inactive),> 100 µM (inactive),> 100 µM (inactive),70.6 µM (inactive),–,> 100 µM (inactive),–
O=[N+]([O-])c1ccc(N2N=C(c3ccc(NCc4nc5ccccc5[nH]4)cc3)CC2c2ccco2)cc1 (centres undefined),30.8 µM (inactive),–,30.9 µM (inactive),16.2 µM (inactive),21.3,17.6 µM (inactive),20.4 µM (inactive),–,24.8 µM (inactive),21.8 µM (inactive),49 µM (inactive),23.6 µM (inactive),37.4 µM (inactive),14.2 µM (inactive),20.3 µM (inactive),47.2 µM (inactive),–,28.5 µM (inactive),18.1 µM (inactive),28.8 µM (inactive)
O=C(/C=C/c1ccc(OCc2ccccc2)cc1)NCc1ccc(C(=O)NCc2ccccc2)cc1,> 100 µM (inactive),> 100 µM (inactive),> 100 µM (inactive),> 100 µM (inactive),> 100,–,> 100 µM (inactive),> 100 µM (inactive),> 100 µM (inactive),> 100 µM (inactive),> 100 µM (inactive),> 100 µM (inactive),> 100 µM (inactive),> 100 µM (inactive),> 100 µM (inactive),> 100 µM (inactive),> 100 µM (inactive),> 100 µM (inactive),> 100 µM (inactive),> 100 µM (inactive)
CC1CC/C(=C\c2ccc(N(C)C)cc2)C2=C1C(c1ccc(N(C)C)cc1)NC(=S)N2 (centres undefined),> 100 µM (inactive),> 100 µM (inactive),–,> 100 µM (inactive),> 100,> 100 µM (inactive),> 100 µM (inactive),> 100 µM (inactive),–,> 100 µM (inactive),> 100 µM (inactive),> 100 µM (inactive),> 100 µM (inactive),> 100 µM (inactive),> 100 µM (inactive),> 100 µM (inactive),> 100 µM (inactive),> 100 µM (inactive),> 100 µM (inactive),> 100 µM (inactive)
CC(=O)Nc1ccc(C(=O)NN2C(=O)C(Cl)/C2=C/c2ccco2)cc1 (centres undefined),> 100 µM (inactive),–,> 100 µM (inactive),> 100 µM (inactive),–,> 100 µM (inactive),> 100 µM (inactive),> 100 µM (inactive),> 100 µM (inactive),> 100 µM (inactive),> 100 µM (inactive),> 100 µM (inactive),> 100 µM (inactive),> 100 µM (inactive),–,> 100 µM (inactive),> 100 µM (inactive),> 100 µM (inactive),> 100 µM (inactive),–
CN(CCO)Cc1ncccc1O,> 100 µM (inactive),> 100 µM (inactive),–,–,> 100,64.3 µM (inactive),0.495 µM (active),> 100 µM (inactive),> 100 µM (inactive),> 100 µM (inactive),> 100 µM (inactive),> 100 µM (inactive),> 100 µM (inactive),> 100 µM (inactive),–,> 100 µM (inactive),> 100 µM (inactive),> 100 µM (inactive),> 100 µM (inactive),> 100 µM (inactive)
O=C1C(Cl)N(c2ccccc2[N+](=O)[O-])C1c1c[nH]c2ccccc12 (centres undefined),> 100 µM (inactive),83.6 µM (inactive),–,> 100 µM (inactive),–,> 100 µM (inactive),> 100 µM (inactive),–,> 100 µM (inactive),> 100 µM (inactive),1.36 µM (inactive),> 100 µM (inactive),> 100 µM (inactive),> 100 µM (inactive),> 100 µM (inactive),> 100 µM (inactive),> 100 µM (inactive),94.4 µM (inactive),> 100 µM (inactive),–
